Tests used:
[1] = tested on: MC3T3-E1 cells; experiment: Mineralization of murine osteoblasts, Von Kossa stain (in vitro single administration); assay type: cell-based, mouse; details: Day 14
Procedure: As the parameters for evaluation of differentiation ability, alkaline phosphatase (ALPase) and mineralization were employed. Detection of alkaline phosphatase which is a marker of differentiation of osteoblasts was carried out on Day 8 from the beginning of the culturing by staining method. Evaluation of mineralization was carried out as follows. That is, MC3T3-E1 cells were placed in each well of 24-well plates in an amount of 50,000 cells/ml (10 times in the case of anti-cell test in Example 3). On Day 4, after confirming that the cells sufficiently reached confluency, the medium was discarded and fresh α-MEM containing 10% JCS, 50 μg/ml of L-ascorbic acid and 10 mM β-glycerophosphate was added in an amount of 0.9 ml/well, followed by adding medium containing varying concentration of IFN. Four days later, the medium was replaced with IFN-free medium, and the medium was replaced with IFN-free medium every 4 days. On Day 14, Von Kossa stain was performed to visualize the calcified foci. Expression of alkaline phosphatase activity which is a differentiation marker is an indispensable step to the subsequent mineralization.

[2] = tested on: MC3T3-E1 cells; experiment: Proliferation of murine osteoblastic cells MC3T3-E1 (in vitro single administration); assay type: cell-based, mouse; details: 10,000 units/ml; cell count on Day 6
Procedure: Murine osteoblast like cells MC3T3-E1 originated from C 57 BL/6 mouse (Kodama et al., Jap. J. Oral Biol., 23, 899, 1982) were washed with PBS(−) and the cells were dissociated by incubation in PBS(−) containing 0.1% pronase (Actinase E, Kaken Pharmaceuticals Co.), followed by dispersing the cells in α-MEM containing 10% JCS and 50 μg/ml of L-ascorbic acid (ASA). The ability to promote proliferation of cells was evaluated as follows. That is, MC3T3-E1 cells were placed in each well in 24-well plates (Corning) in an amount of 5000 cells/well. Then each IFN dilution was added to each well in an amount of 0.1 ml/well, and the culturing was begun. On Day 2, the medium was removed and the each IFN dilution was added in an amount of 0.5 ml/well (total amount of liquid: 0.5 ml/well). On Day 6, the medium was removed and the cells were washed with PBS(−) and a mixed enzyme solution of 0.1% pronase/0.1% collagenase was added to each well in an amount of 200 μl/well, followed by allowing to react at 37° C. for 15 minutes. Then α-MEM containing 10% fetal calf serum (Gibco, hereinafter referred to as “FCS” for short) was added in an amount of 300 μl/well to disperse the cells therein and the number of the cells was counted with a Coulter counter.

[3] = Osteoporosis model mice: change in body weight; assay type: in vivo, mouse; details: administration continuously for 4 weeks at a dose exhibiting the therapeutic effect
Procedure: Female mice of ddy strain of 8 weeks old were divided into 5 groups and experiment was carried out. Bilateral ovariectomy was performed on the mice in 3 groups and sham operation alone was performed on the mice in 2 groups. Thereafter, the mice were raised with normal diet for 1 month, thereby making the state of osteoporosis in the ovariectomized groups. In this model, it is known that the mice become the state of osteoporosis 2 to 3 weeks after the ovariectomy (T. Hosaka et al., ANITEX, Vol. 5, 243, 1992; Miyaura, C. et al., J. Bone Mineral Res., 10, 1365, 1995). From the third weeks from the ovariectomy, murine IFN was subcutaneously administered (100 μl/head/time) once per day, totally 25 times. On Day 30 from the beginning of administration, under ether anesthesia, body weight was measured, blood was collected, and femur was collected and dry bone weight thereof was measured for each mouse.
It is well-known that the increase and decrease in the amount of urinary D-Pyr excreted in urine, which is a crosslinked substance of bone collagen, is an excellent marker reflecting the degree of degradation of bone collagen, that is, the degree of bone resorption (C. P. Jerome et al., Bone and Mineral, 19, 117-125, 1992). For measurement of urinary D-Pyr, a commercially available kit (PYRILINKS-D Assay, METRA BIOSYSTEMS) was used. […]

In the case of “MuIFNβ: murine interferon β, Lot M-0034, prepared by Toray Industries, Inc. by genetic engineering technique”, the “influence on mineralization (calcified foci, Von Kossa stain)” value [1] is reported as “mineralization proceeded without substantial influence”, the “inhibition of proliferation of MC3T3-E1 cells” value [2] is reported as “did not inhibit the proliferation at all” and the “change in body weight” value [3] is reported as “no problematic change in body weight was observed in any group”.
